Read-outs that look alike come from different tables or passages of the source.
Experiments:
[1] = test system: mdr1a (P-gP) knockout (−/−) mouse; conditions: cited from earlier work; for sensitivity to fetal cleft palate: same doses as knockout mice
[2] = in vivo; cited from earlier work
[3] = test system: adult subjects with chronic pain; assay: Human study of the effects of oral quercetin (Q) and analgesics on sedation, concentration and pain; format: in vivo
Description: An empiric trial on the effects of oral quercetin (Q) on sedation, concentration, and pain was conducted. Inclusion criteria included ongoing pain of at least 4/10 on the Likert scale, poor tolerance of current analgesic regimen (complaints of sedation, dizziness, inability to focus), and willingness to complete daily diaries.
Approximately 16 adult subjects with chronic pain were screened and 9 subjects were admitted to the trial. Their pain disorders included peripheral neuropathy (2), facial pain (2), cervical radiculopathy (2), lumbar spine disease (3). Their pre-existing medications included short acting opioids (Vicodin TID, Tramadol 50 mg Q4-6), high dose, long acting opioids (OxyContin 240 mg, Methadone 400 mg), Gabapentin (900 mg and 2700 mg), Ativan, Flexeril, and Soma 350 mg. Seven of the subjects were using at least two analgesic medications. Two subjects were using no current medications because of prior histories of sedation and dizziness during opioid trials.
Q (Sigma) 500 mg per gel capsule was compounded and supplied to all subjects by overnight mail. Subjects were instructed to complete daily diaries for 7 days and continue their baseline medications and regular activities. On approximately the 7th day, they were asked to begin twice daily dosing of 2 Q (1000 mg) capsules (total daily dose of Q, 2000 mg). Diaries were completed for 7 days. Individual diaries included rating sleep interference, focus, pain now, and worst pain over the prior 24 hours. Subjects were instructed that concomitant pain medications should not be altered without speaking with the investigator. Subjects were advised that they would be contacted by telephone every day or every other day to assess progress in the trial and any side effects associated with the addition of Q. At the end of the trial, patients were interviewed. They were asked to rate their satisfaction with the study medication (−2−+2) and its ability to modulate the CNS effects of their pain medications.

[4] = after 7 days of co-administration of Q (2000 mg daily, oral) and analgesics, FIG. 16
[5] = scale of −2 to 2, patients on opiate or MSD and Q

SMILES | sensitivity to fetal cleft palate ([1]; heterozygous (+/−) mice) | sensitivity to fetal cleft palate ([1]; homozygous (+/+) mice) | incidence of fetal cleft palate ([1]; mdr1a knockout mice) [%] | serum half-life [2] [h] | mean ratings for concentration improved [3, 4] | mean ratings for sleep improved [3, 4] | mean ratings for worst pain improved [3, 4] | mean ratings for pain now decreased ([3]; after 7 days of co-administration of Q (2000 mg daily, oral) and analgesics, all patients taking analgesic medications and Q, FIG. 16) | worst pain in the last 24 hrs (NPRS) ([3]; all patients after taking Q, 1 no pain, 10 worst, FIG. 7) | concentration rating (short term memory, focus, wakefulness) ([3]; all patients after taking Q, 1 perfect concentration, 10 worst, FIG. 6) | pain at the time the patients were called (pain now) ([3]; all patients after taking Q, FIG. 8) | sleep rating ([3]; all patients after taking Q, scale to 10 as worst, FIG. 5) | global assessment on the scale of −2 to 2 ([3]; all patients on opiate or MSD (membrane stabilizing drug) and modulator (Q), FIG. 15) | central withdrawal ([3]; opioid users taking Q) | patients reporting 2 in global assessment [3, 5] | patients reporting −2 in global assessment [3, 5] | pain on the scale from 1-10 (worst pain in last 24 hrs, pain at time of call) ([3]; two patients not on baseline meds, poor tolerance of systemic medications, FIG. 13 and 14)
CC[C@H](C)[C@H]1O[C@]2(C=C[C@@H]1C)C[C@@H]1C[C@@H](C/C=C(\C)[C@@H](O[C@H]3C[C@H](OC)[C@@H](O[C@H]4C[C@H](OC)[C@@H](O)[C@H](C)O4)[C@H](C)O3)[C@@H](C)/C=C/C=C3\CO[C@@H]4[C@H](O)C(C)=C[C@@H](C(=O)O1)[C@]34O)O2 [avermectin] | less sensitive | insensitive | 100 | – | – | – | – | – | – | – | – | – | – | – | – | – | –
O=c1c(O)c(-c2ccc(O)c(O)c2)oc2cc(O)cc(O)c12 [Q, quercetin] | – | – | – | 19 to 25 | over 60% | more than 25% | more than 25% | more than 70% | overall improvement | overall improvement | overall improvement | overall improvement | overall improvement | noted in 3 | three | none | brought the pain down
